Data reported in US20150051186A1, “ARYL AZETIDINE DERIVATIVES AS SPHINGOSINE-1 PHOSPHATE RECEPTORS MODULATORS” (Allergan, Inc., priority 2013, published 2015).

Molecular target: T1, human S1P1 receptor (Homo sapiens, UniProt P21453)
T1 construct: expressed in transfected cells; membranes were used
Test: GTP γ35S binding assay for S1P1 activity
Format: biochemical
Details: membranes of cells stably expressing the S1P1 receptor, agonist potency
Experimental: Compounds were synthesized and tested for S1P1 activity using the GTP γ^35S binding assay. These compounds may be assessed for their ability to activate or block activation of the human S1P1 receptor in cells stably expressing the S1P1 receptor.
GTP γ^35S binding was measured in the medium containing (mM) HEPES 25, pH 7.4, MgCl2 10, NaCl 100, dithiothreitol 0.5, digitonin 0.003%, 0.2 nM GTP γ^35S, and 5 μg membrane protein in a volume of 150 μl. Test compounds were included in the concentration range from 0.08 to 5,000 nM unless indicated otherwise. Membranes were incubated with 100 μM 5′-adenylylimidodiphosphate for 30 min, and subsequently with 10 μM GDP for 10 min on ice. Drug solutions and membrane were mixed, and then reactions were initiated by adding GTP γ^35S and continued for 30 min at 25° C. Reaction mixtures were filtered over Whatman GF/B filters under vacuum, and washed three times with 3 mL of ice-cold buffer (HEPES 25, pH7.4, MgCl2 10 and NaCl 100). Filters were dried and mixed with scintillant, and counted for ^35S activity using a β-counter. Agonist-induced GTP γ^35S binding was obtained by subtracting that in the absence of agonist. Binding data were analyzed using a non-linear regression method. In case of antagonist assay, the reaction mixture contained 10 nM […] in the presence of test antagonist at concentrations ranging from 0.08 to 5000 nM.

T1 sequence (P21453 whole entry): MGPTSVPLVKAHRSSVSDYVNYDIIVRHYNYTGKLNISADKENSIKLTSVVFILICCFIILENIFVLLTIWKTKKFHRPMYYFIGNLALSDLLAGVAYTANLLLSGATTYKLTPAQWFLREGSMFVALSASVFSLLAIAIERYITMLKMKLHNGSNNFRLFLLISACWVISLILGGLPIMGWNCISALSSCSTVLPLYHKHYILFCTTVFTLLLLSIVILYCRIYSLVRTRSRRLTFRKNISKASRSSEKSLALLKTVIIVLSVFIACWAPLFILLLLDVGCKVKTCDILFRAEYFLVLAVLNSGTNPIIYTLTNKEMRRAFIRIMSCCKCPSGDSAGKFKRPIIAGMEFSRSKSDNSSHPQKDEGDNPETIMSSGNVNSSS

EC50 | SMILES
129 nM | O=C(O)C1CN(CCCCCCCCC(Cc2ccccc2)c2cccc(Cl)c2)C1 (stereo not shown) [Compound 1, 1-[9-(3-Chlorophenyl)-10-phenyldecyl]azetidine-3-carboxylic acid]
801 nM | Cc1ccc(CC(CCCCCCN2CC(C(=O)O)C2)c2cccc(Cl)c2)cc1C (stereo not shown) [Compound 3, 1-[7-(3-Chlorophenyl)-8-(3,4-dimethylphenyl)octyl]azetidine-3-carboxylic acid]
644 nM | Cc1ccc(CC(CCCCCCCN2CC(C(=O)O)C2)c2cccc(Cl)c2)cc1C (stereo not shown) [Compound 4, 1-[8-(3-Chlorophenyl)-9-(3,4-dimethylphenyl)nonyl]azetidine-3-carboxylic acid]
61.4 nM | Cc1ccc(CC(CCCCCCCN2CC(C(=O)O)C2)c2cc(F)cc(F)c2)cc1C (stereo not shown) [Compound 2, 1-[8-(3,5-Difluorophenyl)-9-(3,4-dimethylphenyl)nonyl]azetidine-3-carboxylic acid]
